Measurements from patent US4170642A, “Derivatives of kanamycin A” (Zaidan Hojin Biseibutsu Kagaku Kenkyu Kai, priority 1974, dated 1979).
In brackets after ≈: the same amount, converted by molar mass.

Tests used:
Assay type in all cases: cell-based
Escherichia coli K-12 R5 = assay: MIC by serial dilution method on nutrient agar; settings: K12R5
Procedure: (§1) The minimum inhibitory concentrations (MIC) of 1-AHB-6'-MKM and 1-AHB-6'-EKM against various micro-organisms were determined by the serial dilution method using a nutrient agar medium at 37° C.

[1] = tested on: Staphylococcus aureus FDA209P; assay: MIC by serial dilution method on nutrient agar; settings: 37° C
Procedure: as §1

[2] = tested on: Pseudomonas aeruginosa A3; assay: MIC by serial dilution method on nutrient agar; settings: 37° C
Procedure: as §1

Escherichia coli W677 = assay: MIC by serial dilution method on nutrient agar; settings: 37° C
Procedure: as §1

[3] = tested on: Pseudomonas aeruginosa GN315; assay: MIC by serial dilution method on nutrient agar; settings: for MIC: nutrient agar, 37° C
Procedure: as §1

[4] = tested on: Pseudomonas aeruginosa TI-13; assay: MIC by serial dilution method on nutrient agar; settings: for MIC: TI13, nutrient agar, 37° C
Procedure: as §1

[5] = tested on: Escherichia coli LA290 R64; assay: MIC by serial dilution method on nutrient agar; settings: LA290R64
Procedure: as §1

[6] = tested on: Escherichia coli LA290 R56; assay: MIC by serial dilution method on nutrient agar; settings: LA290R56
Procedure: as §1

Escherichia coli K-12 = assay: MIC by serial dilution method on nutrient agar; settings: K12, 37° C
Procedure: as §1

[7] = tested on: Mycobacterium smegmatis ATCC607; assay: MIC by serial dilution method on nutrient agar; settings: Mycolicibacterium smegmatis, 37° C
Procedure: as §1

[8] = tested on: Pseudomonas aeruginosa 99; assay: MIC by serial dilution method on nutrient agar; settings: 37° C
Procedure: as §1

[9] = tested on: Escherichia coli LA290 R55; assay: MIC by serial dilution method on nutrient agar; settings: LA290R55
Procedure: as §1

[10] = tested on: Escherichia coli JR66/W677; assay: MIC by serial dilution method on nutrient agar; settings: for MIC: nutrient agar, 37° C
Procedure: as §1

[11] = tested on: Klebsiella pneumoniae 22#3038; assay: MIC by serial dilution method on nutrient agar; settings: for MIC: nutrient agar, 37° C
Procedure: as §1

[12] = tested on: Klebsiella pneumoniae PCI 602; assay: MIC by serial dilution method on nutrient agar; settings: PCI602, 37° C
Procedure: as §1

[13] = tested on: Escherichia coli K-12 ML1629; assay: MIC by serial dilution method on nutrient agar; settings: for MIC: K12ML1629, nutrient agar, 37° C
Procedure: as §1

[14] = tested on: Escherichia coli K-12 ML1410; assay: MIC by serial dilution method on nutrient agar; settings: K12ML1410, 37° C
Procedure: as §1

[15] = tested on: Escherichia coli K-12 ML1630; assay: MIC by serial dilution method on nutrient agar; settings: for MIC: K12ML1630, nutrient agar, 37° C
Procedure: as §1

[16] = tested on: Pseudomonas aeruginosa No. 12; assay: MIC by serial dilution method on nutrient agar; settings: 37° C
Procedure: as §1

[17] = tested on: some strains of gram-negative bacteria carrying R factor Staphylococcus aureus and Pseudomonas aeruginosa; assay: resistance of strains isolated from patients

SMILES	MIC (Escherichia coli K-12 R5)	MIC [1]	MIC [2]	MIC (Escherichia coli W677)	MIC [3]	MIC [4]	MIC [5]	MIC [6]	MIC (Escherichia coli K-12)	MIC [7]	MIC [8]	MIC [9]	MIC [10]	MIC [11]	MIC [12]	MIC [13]	MIC [14]	MIC [15]	MIC [16]	other results
CCNC[C@H]1O[C@H](O[C@H]2[C@H](O)[C@@H](O[C@H]3O[C@H](CO)[C@@H](O)[C@H](N)[C@H]3O)[C@H](NC(=O)[C@@H](O)CCN)C[C@@H]2N)[C@H](O)[C@@H](O)[C@@H]1O [1-AHB-6'-EKM, 1-N-(L-4-amino-2-hydroxybutyryl)-6'-N-ethylkanamycin]	1.56 µg/mL (≈ 2.54 µM)	1.56 µg/mL (≈ 2.54 µM)	25 µg/mL (≈ 40.7 µM)	1.56 µg/mL (≈ 2.54 µM)	100 µg/mL (≈ 163 µM)	50 µg/mL (≈ 81.5 µM)	1.56 µg/mL (≈ 2.54 µM)	1.56 µg/mL (≈ 2.54 µM)	1.56 µg/mL (≈ 2.54 µM)	3.12 µg/mL (≈ 5.08 µM)	100 µg/mL (≈ 163 µM)	3.12 µg/mL (≈ 5.08 µM)	25 µg/mL (≈ 40.7 µM)	25 µg/mL (≈ 40.7 µM)	1.56 µg/mL (≈ 2.54 µM)	3.12 µg/mL (≈ 5.08 µM)	3.12 µg/mL (≈ 5.08 µM)	6.25 µg/mL (≈ 10.2 µM)	25 µg/mL (≈ 40.7 µM)	–
CNC[C@H]1O[C@H](O[C@H]2[C@H](O)[C@@H](O[C@H]3O[C@H](CO)[C@@H](O)[C@H](N)[C@H]3O)[C@H](NC(=O)[C@@H](O)CCN)C[C@@H]2N)[C@H](O)[C@@H](O)[C@@H]1O [1-AHB-6'-MKM, 1-N-(L-4-amino-2-hydroxybutyryl)-6'-N-methylkanamycin]	0.78 µg/mL (≈ 1.3 µM)	0.78 µg/mL (≈ 1.3 µM)	6.25 µg/mL (≈ 10.4 µM)	1.56 µg/mL (≈ 2.6 µM)	50 µg/mL (≈ 83.4 µM)	12.5 µg/mL (≈ 20.8 µM)	0.78 µg/mL (≈ 1.3 µM)	0.78 µg/mL (≈ 1.3 µM)	0.39 µg/mL (≈ 0.65 µM)	0.39 µg/mL (≈ 0.65 µM)	12.5 µg/mL (≈ 20.8 µM)	1.56 µg/mL (≈ 2.6 µM)	6.25 µg/mL (≈ 10.4 µM)	6.25 µg/mL (≈ 10.4 µM)	0.78 µg/mL (≈ 1.3 µM)	0.78 µg/mL (≈ 1.3 µM)	1.56 µg/mL (≈ 2.6 µM)	1.56 µg/mL (≈ 2.6 µM)	3.12 µg/mL (≈ 5.2 µM)	–
CNC[C@H]1O[C@H](O[C@H]2[C@H](O)[C@@H](O[C@H]3O[C@H](CO)[C@@H](O)[C@H](N)[C@H]3O)[C@H](N)C[C@@H]2N)[C@H](O)[C@@H](O)[C@@H]1O [6'-N-methylkanamycin, reference compound]	–	–	–	–	–	–	–	–	–	–	–	–	–	–	–	–	–	–	–	inhibition of kanamycin-resistant strain [3]: does not inhibit; inhibition of kanamycin-resistant strain [4]: does not inhibit; inhibition of kanamycin-resistant strain [10]: does not inhibit; inhibition of kanamycin-resistant strain [11]: does not inhibit; inhibition of kanamycin-resistant strain [13]: does not inhibit; inhibition of kanamycin-resistant strain [15]: does not inhibit
NC[C@H]1O[C@H](O[C@H]2[C@H](O)[C@@H](O[C@H]3O[C@H](CO)[C@@H](O)[C@H](N)[C@H]3O)[C@H](N)C[C@@H]2N)[C@H](O)[C@@H](O)[C@@H]1O [kanamycin]	–	–	–	–	–	–	–	–	–	–	–	–	–	–	–	–	–	–	–	resistance of strains [17]: resistant
